Reference: US7009045B2 (priority 2000, dated 2006)

Tests used:
Format in all cases: cell-based
[1] = system: Candida famata regulatory mutants able to overproduce riboflavin; experiment: Sensitivity to copper ions, solid Burkholder medium (Table 12); parameters: key: +++: strong growth; ++: weak growth; —: absence of growth
Method: The sensitivity of the regulatory mutants of the yeast C. famata which overproduce riboflavin in iron rich medium probably due to defects in genes regulating repression (repression mutants), to different ions of heavy metals was studied. For this, the analyzed strains were streaked on the YPD plates and then were replica-plated on Burkholder synthetic medium containing leucine (40 μg/ml). The C.famata mutants L20105-40-1-11, L20105-40-1-17, L20105-3-2-1, L20105-3-2-8 and L20105-3-2-12 (all contained leu2 marker) accumulated 80–100 μg riboflavin/ml. The mutants #75, 4-48, 2-5 produced much higher amounts of riboflavin (200–250 μg/ml) but were prototrophs for leucine synthesis. Strain #75 was characterized by retarded growth comparing with other mutants. The strains VKM Y-9 (wild type) and L20105 (leu2) were used as the control strains.
Mutants overproducing lower amounts of riboflavin appeared to be more sensitive to CuSO4 (0.15 mM) than that of the strains producing higher amounts of riboflavin (inhibitory concentration 0.5 mM) (Table 12).

[2] = system: Pichia guilliermondii wild type and regulatory mutants (rib81); experiment: Sensitivity after electroporation to K2Cr2O7, medium with 0.5% glycerol (Table 21); parameters: key: +++: strong growth; ++: weak growth; +: very weak growth; —: absence of growth; details: #9-20 (leu2); K2Cr2O7 125 μM
From the text: The possibility for positive selection of P. guilliermondii rib81 transformants unable to overproduce riboflavin in minimal medium was studied. For this, the toxicity of K2Cr2O7 (Cr^+6) was compared for the P. guilliermondii wild-type strain ATCC 9058 and regulatory mutants P. guilliermondii rib81 9-20 and 20-2. The cells were pregrown in liquid YPD to OD 1.5–2.0 (540 nm) and electroporated according to the protocol described (Example 34). Electroporated cells were washed three times with 10×volume of 0.6 M KCl and then the volume was adjusted to 1 ml. Then the cells were plated at 0.2 ml suspension per plate which contained 0.5% glycerol, 0.6 M KCl and K2Cr2O7 (50–1000 μM).
The visual selection of the non-overproducing riboflavin transformants is rather arbitrary and uncertain. Therefore it was decided to develop the method for positive selection of the transformants using tentative differences in sensitivity to K2Cr2O7 of wild-type P. guilliermondii and the regulatory mutants rib81 9-20 and 20-2. After 6 days of cultivation in the medium with 0.5% glycerol, it was shown that K2Cr2O7 at 150–180 μM inhibited growth of regulatory mutant 9-20 more strongly than that of the wild strain (Table 21).

[3] = system: Pichia guilliermondii wild type and regulatory mutants (rib81); experiment: Sensitivity after electroporation to K2Cr2O7, Burkholder medium with 0.3 M sucrose (Table 22); parameters: key: +++: strong growth; ++: weak growth; +: very weak growth; —: absence of growth; details: K2Cr2O7 400 μM
[4] = system: Candida famata regulatory mutants unable to overproduce riboflavin; experiment: Sensitivity to K2Cr2O7, Burkholder medium (Table 10)
From the text: In the next experiments, the influence of cobalt and chromium ions on the growth and riboflavin synthesis of regulatory mutants having defects in derepression (derepression mutants) was studied.

`O=S(=O)([O-])[O-].[Cu+2]` [CuSO4] was tested, and the growth ([1]; #2-5, Cu^+2 0.05 mM) was “+++”, the growth ([1]; #2-5, Cu^+2 0.1 mM) was “+++” and the growth ([1]; #2-5, Cu^+2 0.15 mM) was “+++”. The growth ([1]; #2-5, Cu^+2 0.2 mM) was “+++”, the growth ([1]; #2-5, Cu^+2 0.25 mM) was “+++” and the growth ([1]; #2-5, Cu^+2 0.3 mM) was “++”. The growth ([1]; #2-5, Cu^+2 0.35 mM) was “++”, the growth ([1]; #2-5, Cu^+2 0.5 mM) was “—” and the growth ([1]; #2-5, Cu^+2 0.55 mM) was “—”. For the same compound, the growth ([1]; #2-5, Cu^+2 0.6 mM) was “—”, the growth ([1]; #2-5, Cu^+2 0.65 mM) was “—” and the growth ([1]; #2-5, Cu^+2 0.7 mM) was “—”. For the same compound, the growth ([1]; #2-5, Cu^+2 0.75 mM) was “—”, the growth ([1]; #2-5, Cu^+2 4 mM) was “++” and the growth ([1]; #2-5, Cu^+2 8 mM) was “—”. The growth ([1]; #4-48, Cu^+2 0.05 mM) was “+++”, the growth ([1]; #4-48, Cu^+2 0.1 mM) was “+++” and the growth ([1]; #4-48, Cu^+2 0.15 mM) was “+++”. The growth ([1]; #4-48, Cu^+2 0.2 mM) was “+++”, the growth ([1]; #4-48, Cu^+2 0.25 mM) was “+++” and the growth ([1]; #4-48, Cu^+2 0.3 mM) was “++”. For the same compound, the growth ([1]; #4-48, Cu^+2 0.35 mM) was “++”, the growth ([1]; #4-48, Cu^+2 0.5 mM) was “—” and the growth ([1]; #4-48, Cu^+2 0.55 mM) was “—”. For the same compound, the growth ([1]; #4-48, Cu^+2 0.6 mM) was “—”, the growth ([1]; #4-48, Cu^+2 0.65 mM) was “—” and the growth ([1]; #4-48, Cu^+2 0.7 mM) was “—”. The growth ([1]; #4-48, Cu^+2 0.75 mM) was “—”, the growth ([1]; #4-48, Cu^+2 4 mM) was “++” and the growth ([1]; #4-48, Cu^+2 8 mM) was “—”. For the same compound, the growth ([1]; #75, Cu^+2 0.05 mM) was “+++”, the growth ([1]; #75, Cu^+2 0.1 mM) was “+++” and the growth ([1]; #75, Cu^+2 0.15 mM) was “+++”. For the same compound, the growth ([1]; #75, Cu^+2 0.2 mM) was “+++”, the growth ([1]; #75, Cu^+2 0.25 mM) was “+++” and the growth ([1]; #75, Cu^+2 0.3 mM) was “++”. The growth ([1]; #75, Cu^+2 0.35 mM) was “++”, the growth ([1]; #75, Cu^+2 0.5 mM) was “—” and the growth ([1]; #75, Cu^+2 0.55 mM) was “—”. For the same compound, the growth ([1]; #75, Cu^+2 0.6 mM) was “—”, the growth ([1]; #75, Cu^+2 0.65 mM) was “—” and the growth ([1]; #75, Cu^+2 0.7 mM) was “—”. The growth ([1]; #75, Cu^+2 0.75 mM) was “—”, the growth ([1]; #75, Cu^+2 4 mM) was “++” and the growth ([1]; #75, Cu^+2 8 mM) was “—”. The growth ([1]; L20105 (leu2), Cu^+2 0.45 mM) was “++”, the growth ([1]; L20105 (leu2), Cu^+2 0.5 mM) was “++” and the growth ([1]; L20105 (leu2), Cu^+2 0.55 mM) was “++”. The growth ([1]; L20105-3-2-4, Cu^+2 0.15 mM) was “—”, the growth ([1]; L20105-3-2-4, Cu^+2 0.2 mM) was “—” and the growth ([1]; L20105-3-2-4, Cu^+2 0.25 mM) was “—”. For the same compound, the growth ([1]; L20105-3-2-4, Cu^+2 0.35 mM) was “—”, the growth ([1]; L20105-3-2-4, Cu^+2 0.45 mM) was “—” and the growth ([1]; L20105-3-2-4, Cu^+2 0.5 mM) was “—”. For the same compound, the growth ([1]; L20105-3-2-4, Cu^+2 0.55 mM) was “—”, the growth ([1]; L20105-3-2-4, Cu^+2 0.6 mM) was “—” and the growth ([1]; L20105-3-2-4, Cu^+2 0.65 mM) was “—”. The growth ([1]; L20105-3-2-4, Cu^+2 0.7 mM) was “—”, the growth ([1]; L20105-3-2-4, Cu^+2 0.75 mM) was “—” and the growth ([1]; L20105-3-2-4, Cu^+2 4 mM) was “—”. The growth ([1]; L20105-3-2-8, Cu^+2 0.05 mM) was “++”, the growth ([1]; L20105-3-2-8, Cu^+2 0.15 mM) was “—” and the growth ([1]; L20105-3-2-8, Cu^+2 0.2 mM) was “—”. For the same compound, the growth ([1]; L20105-3-2-8, Cu^+2 0.25 mM) was “—”, the growth ([1]; L20105-3-2-8, Cu^+2 0.3 mM) was “—” and the growth ([1]; L20105-3-2-8, Cu^+2 0.35 mM) was “—”. For the same compound, the growth ([1]; L20105-3-2-8, Cu^+2 0.45 mM) was “—”, the growth ([1]; L20105-3-2-8, Cu^+2 0.5 mM) was “—” and the growth ([1]; L20105-3-2-8, Cu^+2 0.55 mM) was “—”. For the same compound, the growth ([1]; L20105-3-2-8, Cu^+2 0.6 mM) was “—”, the growth ([1]; L20105-3-2-8, Cu^+2 0.65 mM) was “—” and the growth ([1]; L20105-3-2-8, Cu^+2 0.7 mM) was “—”. The growth ([1]; L20105-3-2-8, Cu^+2 0.75 mM) was “—”, the growth ([1]; L20105-3-2-8, Cu^+2 4 mM) was “—” and the growth ([1]; L20105-3-2-8, Cu^+2 8 mM) was “—”. For the same compound, the growth ([1]; L20105-3-2-12, Cu^+2 0.05 mM) was “++”, the growth ([1]; L20105-3-2-12, Cu^+2 0.15 mM) was “—” and the growth ([1]; L20105-3-2-12, Cu^+2 0.2 mM) was “—”. The growth ([1]; L20105-3-2-12, Cu^+2 0.25 mM) was “—”, the growth ([1]; L20105-3-2-12, Cu^+2 0.3 mM) was “—” and the growth ([1]; L20105-3-2-12, Cu^+2 0.35 mM) was “—”. For the same compound, the growth ([1]; L20105-3-2-12, Cu^+2 0.45 mM) was “—”, the growth ([1]; L20105-3-2-12, Cu^+2 0.5 mM) was “—” and the growth ([1]; L20105-3-2-12, Cu^+2 0.55 mM) was “—”. For the same compound, the growth ([1]; L20105-3-2-12, Cu^+2 0.6 mM) was “—”, the growth ([1]; L20105-3-2-12, Cu^+2 0.65 mM) was “—” and the growth ([1]; L20105-3-2-12, Cu^+2 0.7 mM) was “—”. For the same compound, the growth ([1]; L20105-3-2-12, Cu^+2 0.75 mM) was “—”, the growth ([1]; L20105-3-2-12, Cu^+2 4 mM) was “—” and the growth ([1]; L20105-3-2-12, Cu^+2 8 mM) was “—”.

With `[K+].[K+].[O]=[Cr](=[O])([O-])[O][Cr](=[O])(=[O])[O-]` [K2Cr2O7] the growth [2] was “+”, the growth ([3]; #9-20 (leu2)) was “+” and the growth ([3]; ATCC9058) was “+”. The “growth of wild-type strains VKM Y-9 and L20105 (leu2)” value ([4]; Cr^+6 0.15 mM) was “grow at this concentration quite satisfactory” and the “concentration toxic for the derepression mutants” value ([4]; Cr^+6 ions as K2Cr2O7) was 0.15 mM.
